{
  "source": "patent US20140163026A1",
  "about": "“8-ETHYL-6-(ARYL)PYRIDO[2,3-D]PYRIMIDIN-7(8H)-ONES FOR THE TREATMENT OF NERVOUS SYSTEM DISORDERS AND CANCER” (Afraxis Holdings, Inc., priority 2011, published 2014)",
  "key": {"[1]": {"test_system": "NF2−/− mesothelioma cells (NCI-H226)", "assay": "Growth inhibition of NF2 deficient cells (CellTiter-Glo)", "assay_type": "cell-based", "conditions": "0 μM-30 μM, 72 hours, FIG. 7", "description": "(§1) NF2 deficient cell lines were cultured in the appropriate medium. Once enough cells have propagated, plates of all adherent lines were seeded at 5,000-10,000 cells/well (depending on cell line) in a total volume of 50 μL, and plates of all suspension lines at 10,000-20,000 cells/well (depending on cell line) in a total volume of 50 μL. Plates were placed in a humidified cell culture incubator overnight to allow adherent cells to attach.\n(§2) 10 mM stocks of each PAK inhibitor compound in DMSO were prepared. Dilutions were performed with media to provide 1% DMSO 2× stock solutions of each PAK inhibitor compound.\n(§3) 50 μL of all PAK inhibitor compound 2× stocks were added to appropriate wells already containing 50 μL of cells and medium to expose cells to the final concentrations of compounds required. 50 μL of media was added to media and cell control wells and 50 μL of mix to vehicle control wells. At the same time as drug exposure, a CTG (CellTiter-Glo Assay) assay was performed on the 0 hr plate to obtain a 0 hr count. Cells were exposed to PAK inhibitor compounds or a DMSO control for 72 hours. Following the 72 hour exposure period, all remaining plates were assayed using CTG.\n(§4) At the end of the 72 hour exposure period, plates were removed for a CTG assay from 37° C., 5% CO2 incubator and place on the bench at room temperature for 30 mins. 100 μL CTG reagent was added to each well, mixed for 2 minutes, followed by a further 10 minute incubation at room temperature. Luminescence for each well was determined.\n(§5) Growth inhibition percent was calculated using the following equation: (Growth %=(Sample Value−T0Ave)/(Max−T0Ave)*100).\nNF2^−/− mesothelioma cells (e.g., NCI-H226 cells) were treated with varying concentrations of a PAK inhibitor compound disclosed in Examples 33, 84, or 122."}, "[2]": {"test_system": "EBC-1 cells", "assay": "Growth inhibition of PAK1 amplified NSCLC cells (CellTiter-Glo)", "assay_type": "cell-based", "conditions": "0 μM-30 μM, 72 hours, FIG. 8", "description": "as §1, with “The PAK1 amplified” for “NF2 deficient”\nas §2\nas §3, with “50” for “50 μL of all PAK inhibitor compound 2× stocks were added to appropriate wells already containing 50 μL of cells and medium to expose cells to the final concentrations of compounds required. 50”\nas §4, §5"}, "[3]": {"test_system": "SK-MES-1 cells", "assay": "Growth inhibition of PAK1 amplified NSCLC cells (CellTiter-Glo)", "assay_type": "cell-based", "conditions": "0 μM-30 μM, 72 hours, FIG. 10", "description": "as §1, with “The PAK1 amplified” for “NF2 deficient”\nas §2\nas §3, with “50” for “50 μL of all PAK inhibitor compound 2× stocks were added to appropriate wells already containing 50 μL of cells and medium to expose cells to the final concentrations of compounds required. 50”\nas §4, §5"}, "[4]": {"test_system": "NCI-H520 cells", "assay": "Growth inhibition of PAK1 amplified NSCLC cells (CellTiter-Glo)", "assay_type": "cell-based", "conditions": "0 μM-30 μM, 72 hours, FIG. 9", "description": "as §1, with “The PAK1 amplified” for “NF2 deficient”\nas §2\nas §3, with “50” for “50 μL of all PAK inhibitor compound 2× stocks were added to appropriate wells already containing 50 μL of cells and medium to expose cells to the final concentrations of compounds required. 50”\nas §4, §5"}, "[5]": {"test_system": "Nf2−/− SC4 cells", "assay": "Growth inhibition of NF2 deficient cells (CellTiter-Glo)", "assay_type": "cell-based, mouse", "conditions": "1 uM concentration for 72 hours, FIG. 4", "description": "as §1, §2\nas §3, with “Cells were exposed to PAK inhibitor compounds or a DMSO control for 72 hours. Following the 72 hour exposure period, all remaining plates were assayed using CTG.” left out\nAt the end of the 72 hour exposure period, plates were removed for a CTG assay from 37° C., 5% CO2 incubator and place on the bench at room temperature for 30 mins. […] Luminescence for each well was determined.\nGrowth inhibition percent was calculated using the following equation: (Growth %=(Sample Value−T0Ave)/(Max−T0Ave)*100). […]"}, "[6]": {"test_system": "Nf2−/− SC4 cells transplanted into the sciatic nerve sheath of NOD/SCID mice", "assay": "Orthotopic NF2 deficient schwannoma mouse model, tumor weight", "assay_type": "in vivo", "conditions": "intraneural Nf2−/− cells, FIG. 5", "source_text": "The NF2 protein is absent in ˜100% of sporadic schwannomas. Thus, an NF2 deficient-schwanoma mouse model was generated and used to evaluate treatment of sporadic schwannomas with a PAK inhibitor compound disclosed herein.\nMurine Nf2^−/− cells may be generated by various means. For example, NF2^−/− cells may be generated by administering an shRNA or siRNA targeting an Nf2 gene, thereby disrupting the Nf2 gene. In another example, NF2^−/− cells may be generated by using a Cre recombinase.\nNf2^−/− SC4 cells may be generated by using a Cre recombinase. Pure populations of embryonic SC4 cells were isolated from Nf 2^loxP/loxP− mice at about embryonic day 13.5. […]\nNf2^−/− cells (e.g., Nf2^−/− SC4 control cells) were transduced by lentiviruses carrying pLuc-mCherry and sorted by FACS. […] Tumor progression was monitored weekly by bioluminescence imaging (BLI) according to the manufacturer's instructions on an IVIS-200 system. The mice were sacrificed and the tumors from the vehicle control treated and PAK inhibitor treated mice were measured.\nNF2^−/− cells (e.g., Nf2^−/− SC4 control cells) were transduced by lentiviruses carrying pLuc-mCherry and sorted by FACS. […] Tumor progression was monitored weekly by bioluminescence imaging (BLI) according to the manufacturer's instructions on an IVIS-200 system. […]\nAt various time points, treatment efficacy was determined. […]"}},
  "data": [
    {"smiles": "CCn1c(=O)c(-c2ccc(-c3cccnc3F)cc2Cl)cc2cnc(Nc3ccc(N4CCN(C)CC4)cc3)nc21", "note": "[Example 33]", "values": [
      {"measurement": "growth (%) with increasing concentration", "setting": "[1]", "result": "the growth (%) of the cells reduced"},
      {"measurement": "growth (%) with increasing concentration", "setting": "[2]", "result": "the growth (%) decreased"},
      {"measurement": "growth (%) with increasing concentration", "setting": "[3]", "result": "the growth (%) decreased"},
      {"measurement": "growth (%) with increasing concentration", "setting": "[4]", "result": "the growth (%) decreased"},
      {"measurement": "cell number compared to DMSO control treated cells", "setting": "[5]", "result": "reduction in cell number"}
    ]},
    {"smiles": "CCn1c(=O)c(-c2ccc(-c3cncs3)cc2Cl)cc2cnc(Nc3ccc(N4CCN(C)CC4)cc3)nc21", "note": "[Example 84]", "values": [
      {"measurement": "average tumor weight versus vehicle control treated mice", "setting": "[6]", "result": "less than the average tumor weight of the vehicle control treated mice"},
      {"measurement": "growth (%) with increasing concentration", "setting": "[1]", "result": "the growth (%) of the cells reduced"},
      {"measurement": "cell number compared to DMSO control treated cells", "setting": "[5]", "result": "reduction in cell number"}
    ]}
  ]
}
